From article PMC3857288, “Characterization of Amylolysin, a Novel Lantibiotic from Bacillus amyloliquefaciens GA1” (PLoS ONE, 2013)
Where two headings read alike, the source gives them in different places.

Columns and labels:
[1] = tested on: Bacillus cereus RFB125; assay: MIC, microdilution (CLSI); type: cell-based; details: clinical isolate; LB medium, 37 °C, 24-well plates, seeded at OD600 0.1, 24 h, amylolysin 0.1-2.8 µM, OD600 read-out, triplicate
Method: (§1) Minimal inhibitory concentration (MIC) was determined for an array of bacterial and yeast strains by a microdilution method following the Clinical and Laboratory Standard Institute (CLSI) recommended procedure. Briefly, the different indicator strains were aerobically grown in 24-wells culture plates in the presence of purified amylolysin at concentration ranging from 0.1 to 2.8 µM in the appropriate medium and temperature conditions as stipulated in table 1. Each well was seeded at an OD600 of 0.1. After 24 h of incubation, cell growth was estimated based on OD600 measurements. The MIC values were defined as the lowest amylolysin concentration that is able to inhibit cell growth. Each experiment was performed in triplicate.

[2] = tested on: Bacillus megaterium RFB124; assay: MIC, microdilution (CLSI); type: cell-based; details: LB medium, 37 °C, 24-well plates, seeded at OD600 0.1, 24 h, amylolysin 0.1-2.8 µM, OD600 read-out, triplicate
Method: as §1

[3] = tested on: Bacillus subtilis ATCC 6633; assay: MIC, microdilution (CLSI); type: cell-based; details: LB medium, 37 °C, 24-well plates, seeded at OD600 0.1, 24 h, amylolysin 0.1-2.8 µM, OD600 read-out, triplicate
Method: as §1

[4] = tested on: Enterococcus faecalis ATCC 29212; assay: MIC, microdilution (CLSI); type: cell-based; details: BH medium, 37 °C, 24-well plates, seeded at OD600 0.1, 24 h, amylolysin 0.1-2.8 µM, OD600 read-out, triplicate
Method: as §1

[5] = tested on: Enterococcus faecalis RFB129; assay: MIC, microdilution (CLSI); type: cell-based; details: clinical isolate; BH medium, 37 °C, 24-well plates, seeded at OD600 0.1, 24 h, amylolysin 0.1-2.8 µM, OD600 read-out, triplicate
Method: as §1

[6] = tested on: Enterococcus faecium RFB128; assay: MIC, microdilution (CLSI); type: cell-based; details: lab stock; BH medium, 37 °C, 24-well plates, seeded at OD600 0.1, 24 h, amylolysin 0.1-2.8 µM, OD600 read-out, triplicate
Method: as §1

[7] = tested on: Lactobacillus plantarum RFB138; assay: MIC, microdilution (CLSI); type: cell-based; details: lab stock; MRS medium, 27 °C, 24-well plates, seeded at OD600 0.1, 24 h, amylolysin 0.1-2.8 µM, OD600 read-out, triplicate
Method: as §1

[8] = tested on: Listeria innocua ATCC33090; assay: MIC, microdilution (CLSI); type: cell-based; details: BH medium, 37 °C, 24-well plates, seeded at OD600 0.1, 24 h, amylolysin 0.1-2.8 µM, OD600 read-out, triplicate
Method: as §1

[9] = tested on: Listeria innocua RFB159; assay: MIC, microdilution (CLSI); type: cell-based; details: clinical isolate; BH medium, 37 °C, 24-well plates, seeded at OD600 0.1, 24 h, amylolysin 0.1-2.8 µM, OD600 read-out, triplicate
Method: as §1

[10] = tested on: Listeria ivanovii RFB160; assay: MIC, microdilution (CLSI); type: cell-based; details: BH medium, 37 °C, 24-well plates, seeded at OD600 0.1, 24 h, amylolysin 0.1-2.8 µM, OD600 read-out, triplicate
Method: as §1

[11] = tested on: Listeria monocytogenes LM2234; assay: MIC, microdilution (CLSI); type: cell-based; details: clinical isolate; BH medium, 37 °C, 24-well plates, seeded at OD600 0.1, 24 h, amylolysin 0.1-2.8 µM, OD600 read-out, triplicate
Method: as §1

[12] = tested on: Listeria monocytogenes LMG 21263; assay: MIC, microdilution (CLSI); type: cell-based; details: BH medium, 37 °C, 24-well plates, seeded at OD600 0.1, 24 h, amylolysin 0.1-2.8 µM, OD600 read-out, triplicate
Method: as §1

[13] = tested on: Listeria monocytogenes LMG 23905; assay: MIC, microdilution (CLSI); type: cell-based; details: BH medium, 37 °C, 24-well plates, seeded at OD600 0.1, 24 h, amylolysin 0.1-2.8 µM, OD600 read-out, triplicate
Method: as §1

[14] = tested on: Micrococcus luteus ATCC 9341; assay: MIC, microdilution (CLSI); type: cell-based; details: BH medium, 37 °C, 24-well plates, seeded at OD600 0.1, 24 h, amylolysin 0.1-2.8 µM, OD600 read-out, triplicate
Method: as §1

[15] = tested on: Staphylococcus aureus ATCC 25923; assay: MIC, microdilution (CLSI); type: cell-based; details: BH medium, 37 °C, 24-well plates, seeded at OD600 0.1, 24 h, amylolysin 0.1-2.8 µM, OD600 read-out, triplicate
Method: as §1

[16] = tested on: Staphylococcus aureus ATCC 43300 (methicillin resistant); assay: MIC, microdilution (CLSI); type: cell-based; details: methicillin resistant strain; BH medium, 37 °C, 24-well plates, seeded at OD600 0.1, 24 h, amylolysin 0.1-2.8 µM, OD600 read-out, triplicate
Method: as §1

[17] = tested on: Staphylococcus aureus RFB127; assay: MIC, microdilution (CLSI); type: cell-based; details: lab stock; BH medium, 37 °C, 24-well plates, seeded at OD600 0.1, 24 h, amylolysin 0.1-2.8 µM, OD600 read-out, triplicate
Method: as §1

[18] = tested on: Staphylococcus epidermis ATCC 1228; assay: MIC, microdilution (CLSI); type: cell-based; details: BH medium, 37 °C, 24-well plates, seeded at OD600 0.1, 24 h, amylolysin 0.1-2.8 µM, OD600 read-out, triplicate
Method: as §1

[19] = tested on: Streptococcus agalactiae RFB141; assay: MIC, microdilution (CLSI); type: cell-based; details: clinical isolate; BH medium, 37 °C, 24-well plates, seeded at OD600 0.1, 24 h, amylolysin 0.1-2.8 µM, OD600 read-out, triplicate
Method: as §1

[20] = tested on: Weissella sp RFB139; assay: MIC, microdilution (CLSI); type: cell-based; details: lab stock; MRS medium, 27 °C, 24-well plates, seeded at OD600 0.1, 24 h, amylolysin 0.1-2.8 µM, OD600 read-out, triplicate
Method: as §1

[21] = tested on: L. monocytogenes (three clinical or food isolates); assay: MIC, microdilution (CLSI), summary for three isolates; type: cell-based, Listeria monocytogenes; details: summary value of the text for the three L. monocytogenes isolates tested; BH medium, 37 °C, 24 h, triplicate
Method: as §1

[22] = type: physicochemical; details: agar diffusion, M. luteus ATCC 9341
Method: To evaluate sensitivity to proteases, purified amylolysin samples were quantified by RP-HPLC after 24h of incubation at 37°C with proteinase K and pronase (10 µg/ml, Sigma-Aldrich). Heat stability was evaluated after incubation for 60 min at various temperatures (25, 55, 65, 75 and 100 °C) whereas pH sensitivity was evaluated after a 1h-incubation in 200 mM HCl/KCl buffer (pH 2-3), acetate buffer (pH 4-6) and Tris buffer (pH 7-9). After those treatments, the remaining amylolysin activity was determined using the agar diffusion assays as described elsewhere, using Micrococcus luteus ATCC 9341 as an indicator strain.

[23] = Direct interaction with [14C] lipid II, TLC migration; type: binding; details: [14C] lipid II 2.5 µM, amylolysin 0.2 µM, DMSO/1-octanol 60/40 v/v, 1 hour, room temperature, Molecular Imager FX
Method: (§2) Radiolabelled UDP-MurNac-pentapeptide, thereafter [^14C] lipid II, was prepared in vitro using E. coli K12 purified membrane from UDP-GlcNac and UDP-MurNAc-L-Ala-D-Glu-meso-DAP-D-[^14C]Ala-D-[^14C]Ala and subsequently purified as previously described. Inhibition of glycosyl transferase reaction was performed as described elsewhere with some modifications. Briefly, [^14C] lipid II (2.5µM; 0.125µCi nmol^-1), amylolysin (0.2 µM), His-tag PBP1bγ from E. coli (15 nM) were incubated in 25mM Tris-HCl (pH7,5), 0,5 % decyl PEG, 10 mM MgCl2, 12% 1-octanol, 25 % DMSO for 1 hour at 30 °C. The reaction products were separated by thin layer chromatography (TLC) on silica plate (SilG, […], Macherey-Nagel, Duren, Germany) using a mixture of methanol/chloroform/ammoniac/water (88/48/10/1, v/v/v/v) as mobile phase. For interaction experiment, [^14C] lipid II (2.5 µM; 0.125µCinmol^-1) and amylolysin (0.2 µM) were incubated in DMSO/1-octanol mixture (60/40 v/v) for 1 hour at room temperature before being subjected to TCL using a butanol/acetic acid/pyridine/water mixture (15/3/12/10, v/v/v/v) as mobile phase. The radioactive compounds were detected and analyzed with a Molecular Imager FX system (Biorad Laboratories).

[24] = tested on: His-tag PBP1bγ from E. coli; assay: Inhibition of the transglycosylation (glycosyl transferase) reaction, TLC of [14C] lipid II; type: biochemical; details: [14C] lipid II 2.5 µM, amylolysin 0.2 µM, PBP1bγ 15 nM, 25 mM Tris-HCl pH 7.5, 0.5 % decyl PEG, 10 mM MgCl2, 12% 1-octanol, 25 % DMSO, 1 hour, 30 °C
Method: as §2

[25] = tested on: meat proteases; details: cited from earlier work
Source text: (§3) The majority of the bacteriocins described to date are from lactic bacteria with nisin, used commercially in many countries as preservative in food products, being the best characterized compound. […] In regards to their high level of protease production, Bacillus sp. has been considered as interesting alternative source for antimicrobial peptides with increased protease tolerance. In our laboratory, B. amyloliquefaciens ...

[26] = above pH 6; cited from earlier work
Source text: as §3

Q: With amylolysin as the substance, how does the MIC [1] read?
A: 0.2 µM

Q: And the MIC [2]?
A: 0.4 µM

Q: And the MIC [3]?
A: 1.4 µM

Q: What about the MIC [4] of the same substance?
A: 1.4 µM

Q: And the MIC [5]?
A: 0.7 µM

Q: What about the MIC [6] of the same substance?
A: 0.1 µM

Q: And the MIC [7]?
A: >2.8 µM

Q: What about the MIC [8] of the same substance?
A: 0.7 µM

Q: And the MIC [9]?
A: 0.7 µM

Q: What about the MIC [10] of the same substance?
A: 0.8 µM

Q: What about the MIC [11] of the same substance?
A: 0.4 µM

Q: What about the MIC [12] of the same substance?
A: 0.5 µM

Q: What about the MIC [13] of the same substance?
A: 0.4 µM

Q: And the MIC [14]?
A: 0.7 µM

Q: And the MIC [15]?
A: 2.8 µM

Q: What about the MIC [16] of the same substance?
A: 0.4 µM

Q: And the MIC [17]?
A: 1.4 µM

Q: What about the MIC [18] of the same substance?
A: 2.8 µM

Q: What about the MIC [19] of the same substance?
A: 2.8 µM

Q: What about the MIC [20] of the same substance?
A: 2.8 µM

Q: And the MIC [21]?
A: ~0.5 µM

Q: And the “reduction of biological activity” value ([22]; 100 °C for 1 hour)?
A: 7%

Q: And the antimicrobial activity reduction ([22]; acidic condition, pH 2, 1 h)?
A: 11%

Q: And the antimicrobial activity reduction ([22]; alkaline condition, pH 9, 1 h)?
A: 7%

Q: And the “direct amylolysin-lipid II interaction (delay of migration of the complex on TLC)” value [23]?
A: direct interaction between the two partners

Q: What about the “inhibition of the transglycosylation reaction (lipid II polymerisation)” value [24] of the same substance?
A: Inhibition of the transglycosylation reaction

Q: What about the “sensitivity to meat proteases” value [25] of the same substance?
A: less sensitive to meat proteases than nisin

Q: For nisin, which solubility [26] is on record?
A: low solubility above pH 6
